Source: US7718614B2 (Kurume University, priority 2003, dated 2010)
Several values for one entry are separate records, joined by “and”; a condition that tells them apart may be missing. Equal entries are not always repeated. Entries after “also recorded” stand apart in the source; their conditions may differ.

Key:
[1] = test system: peptide-specific IgG; assay: ELISA of serum IgG specific for the administered peptides, Example 1; assay type: in vivo, human; parameters: key: −: absent; +: present, low titer; ++: present, high titer; conditions: serum of the individual case; for Anti-peptide IgG during the combination therapy, 6th: after 6th vaccination; for Anti-peptide IgG during the combination therapy, 12th: after 12th vaccination; for Anti-peptide IgG during the combination therapy, 18th: after 18th vaccination; for Anti-peptide IgG during the combination therapy, Pre: before combination therapy
[2] = test system: peptide-specific IgG; assay: ELISA of serum anti-peptide IgG, Example 2; assay type: in vivo, human; parameters: key: −: absent; +: present, low titer; ++: present, high titer; conditions: serum of the individual patient; for Anti-peptide IgG, 6th: after 6th vaccination; for Anti-peptide IgG, Pre: pre-vaccination
Description: Peptide-specific CTL precursors in PBMCs were detected using a previously reported culture method, while an ELISA was used to detect the serum IgG levels specific for the peptides administrated, as reported previously. In addition, a new monitoring method was conducted to carefully measure the estramustine-induced immunosuppression. Namely, PBMCs were harvested every 2 weeks and were cultured (10^4 cells/well) for 2 days in triplicate assays with […] of phytohemagglutinin (PHA), 10 ng/ml of Epstein-Bar virus (EBV)-derived peptide with HLA-A24 or -A2 binding motif, and 10 ng/ml of two different peptides under vaccination. After 2 days in culture, the amounts of IFN-γ in cell free supernatants were measured in triplicate assays, and viable cell numbers were also counted. To avoid biases in each assay, all the PBMCs were once cryopreserved and the four different PBMCs (two from healthy donors, one from patients PBMCs harvested 2 weeks before the latest vaccination, and one from the latest vaccination) were thawed at the same time in the morning of the experiment. The PBMCs from healthy donors were from the same donors throughout the series of immunological monitoring. Responses (IFN-γ production) to PHA, EBV-peptide, and the vaccinated peptides were considered to be mediated by resting T cells, memory T cells, and activated T cells, respectively.
Except for the following points, substantially the same approach was employed as Example 1.

[3] = test system: peptide-specific CTL precursors in PBMCs; assay: Peptide-specific CTL precursor assay (IFN-γ production), Example 2; assay type: cell-based, human; conditions: for Cellular response to peptide, 6th (mean specific IFN-γ production): post(6th)-vaccination PBMCs of the individual patient, * p ≦ 0.05, ** p ≦ 0.10 increased versus pre; for Cellular response to peptide, Pre (mean specific IFN-γ production): pre-vaccination PBMCs of the individual patient, response to HIV peptide subtracted
Description: Before the first vaccination and 7 days after every 6th vaccination, 30 ml of peripheral blood was obtained, and PBMCs were isolated by means of Ficoll-Conray density gradient centrifugation. Peptide-specific CTL precursors in PBMCs were detected using a previously reported culture method [24]. Briefly, PBMCs (1×10^5 cells/well) were incubated with 10 μM of each peptide in U-bottom-type 96-well microculture plates (Nunc, Roskilde, Denmark) in 200 μl of culture medium. The culture medium contained 45% RPMI-1640 medium, 45% AIM-V™ medium (Invitrogen Corp., Carlsbad, Calif.), 10% FCS, 100 U/ml of interleukin-2 (IL-2) and 0.1 mM MEM nonessential amino acid solution (Invitrogen Corp.). Half of the medium was removed and replaced with the new medium containing a corresponding peptide (20 μM) every 3 days for up to 12 days. […] The target cells (C1R-A2402 or T2, 1×10^4/well) were pulsed with each peptide (10 μM) for 2 hr, and then effector cells (1×10^5/well) were added to each well with the final volume of 200 μl. After incubation for 18 hr, the supernatants (100 μl) were collected, and the amounts of IFN-γ were measured using an enzyme-linked immuno-sorbent assay (ELISA) (limit of sensitivity: 10 pg/ml). All experiments were performed in the four different wells with duplicate assays.
All patients were vaccinated with up to 4 peptides selected from the 16 candidates by pre-vaccination measurements.

[4] = test system: peptide-specific CTL precursors in PBMCs; assay: Peptide-specific CTL precursor assay (IFN-γ production of peptide-stimulated PBMCs), Example 1; assay type: cell-based, human; parameters: key to Cellular response to peptide during the combination therapy, 12th / Cellular response to peptide during the combination therapy, 6th / Cellular response to peptide during the combination therapy, Pre: Ar: p* ≦ 0.1 and 500 ≦ net**; A: p ≦ 0.05 and 50 ≦ net; B: p ≦ 0.05 and 25 ≦ net < 50; C: 0.05 < p < 0.1 and 50 ≦ net; AAAA: all four wells of quadruplicate assay were positive; AAA: three wells of quadruplicate assay were positive; AA: two wells of quadruplicate assay were positive; conditions: PBMCs of the individual case; for Cellular response to peptide during the combination therapy, Pre: before combination therapy, grade of each positive well of quadruplicate IFN-γ assay; for Cellular response to peptide during the combination therapy, 6th: after 6th vaccination; for Cellular response to peptide during the combination therapy, 12th: after 12th vaccination; for Cellular response to peptide during the combination therapy, 18th: after 18th vaccination;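 as to all read-outs here: PBMCs cultured with each peptide at 10 µM, restimulated at 20 µM every 3 days up to 12 days, then 18 hr with peptide-pulsed target cells, IFN-γ by ELISA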
Description: Before the first vaccination and 7 days after every 6th vaccination, 30 ml of peripheral blood was obtained, and PBMCs were isolated by means of Ficoll-Conray density gradient centrifugation. Peptide-specific CTL precursors in PBMCs were detected using a previously reported culture method [24]. Briefly, PBMCs (1×10^5 cells/well) were incubated with 10 μM of each peptide in U-bottom-type 96-well microculture plates (Nunc, Roskilde, Denmark) in 200 μl of culture medium. The culture medium contained 45% RPMI-1640 medium, 45% AIM-V™ medium (Invitrogen Corp., Carlsbad, Calif.), 10% FCS, 100 U/ml of interleukin-2 (IL-2) and 0.1 mM MEM nonessential amino acid solution (Invitrogen Corp.). Half of the medium was removed and replaced with the new medium containing a corresponding peptide (20 μM) every 3 days for up to 12 days. […] The target cells (C1R-A2402 or T2, 1×10^4/well) were pulsed with each peptide (10 μM) for 2 hr, and then effector cells (1×10^5/well) were added to each well with the final volume of 200 μl. After incubation for 18 hr, the supernatants (100 μl) were collected, and the amounts of IFN-γ were measured using an enzyme-linked immuno-sorbent assay (ELISA) (limit of sensitivity: 10 pg/ml). All experiments were performed in the four different wells with duplicate assays. […] Peptides were chosen based upon evaluation of all 4 wells by the order shown above.
Peptide-specific CTL precursors in PBMCs were detected using a previously reported culture method [24], while an ELISA was used to detect the serum IgG levels specific for the peptides administrated, as reported previously [13-15]. […] Namely, PBMCs were harvested every 2 weeks and were cultured (10^4 cells/well) for 2 days in triplicate assays with 10 μl M of phytohemagglutinin (PHA), 10 ng/ml of Epstein-Bar virus (EBV)-derived peptide with HLA-A24 or -A2 binding motif, and 10 ng/ml of two different peptides under vaccination. After 2 days in culture, the amounts of IFN-γ in cell free supernatants were measured in triplicate assays, and viable cell numbers were also counted. To avoid biases in each assay, all the PBMCs were once cryopreserved and the four different PBMCs (two from healthy donors, one from patients PBMCs harvested 2 weeks before the latest vaccination, and one from the latest vaccination) were thawed at the same time in the morning of the experiment. The PBMCs from healthy donors were from the same donors throughout the series of immunological monitoring. Responses (IFN-γ production) to PHA, EBV-peptide, and the vaccinated peptides were considered to be mediated by resting T cells, memory T cells, and activated T cells, respectively.

[5] = test system: PBMCs; assay: Monitoring of estramustine-induced immunosuppression (IFN-γ production of PBMCs to PHA, EBV-peptide and vaccinated peptides), Example 1
[6] = test system: HRPC patients; assay: Combination therapy by dose of estramustine phosphate, Example 3; assay type: in vivo, human
[7] = test system: PBMCs; assay: Immunosuppression during combination therapy, Example 2; conditions: half dose (280 mg/day) with the peptide
[8] = test system: HRPC patients; conditions: phase III study; cited from earlier work
[9] = estramustine 140 mg/day combined with peptide vaccination, 4 cases
[10] = estramustine 280 mg/day combined with peptide vaccination, 32 cases
[11] = estramustine 560 mg/day combined with peptide vaccination, 5 cases

| Compound | Anti-peptide IgG during the combination therapy, 6th [1] | Anti-peptide IgG during the combination therapy, 12th [1] | Anti-peptide IgG during the combination therapy, 18th [1] | Anti-peptide IgG during the combination therapy, Pre [1] | Anti-peptide IgG, 6th [2] | Anti-peptide IgG, Pre [2] | Cellular response to peptide, 6th (mean specific IFN-γ production) [3] | Cellular response to peptide, Pre (mean specific IFN-γ production) [3] | Cellular response to peptide during the combination therapy, Pre [4] | Cellular response to peptide during the combination therapy, 6th [4] | Cellular response to peptide during the combination therapy, 12th [4] | Cellular response to peptide during the combination therapy, 18th [4] | also measured |
| --- | --- | --- | --- | --- | --- | --- | --- | --- | --- | --- | --- | --- | --- |
| DYSARWNEI [SART 293-101] | − | − | − | − | + and − (2×) | + (2×) and − | 376.8 pg/ml and 162.5 pg/ml and 228.5** pg/ml | 22.8 pg/mL and 125 pg/mL and 57.3 pg/mL | C (0.05 < p < 0.1 and 50 ≦ net) |  |  |  |  |
| HYTNASDGL [lck208-216] | − | − | − and + | − | − | − (2×) and + | 0 pg/mL and 676 pg/mL and 58.8 pg/mL | 34.8 pg/mL and 5.8 pg/mL and 26.3 pg/mL | A (p ≦ 0.05 and 50 ≦ net) | AA |  |  |  |
| AYIDFEMKI [SART 3315-323] | − and + | − | − | − and + | + (2×) and − (3×) | − (4×) and + (2×) | 39.3 pg/ml and 12.8 pg/ml and 154** pg/ml and 26.5 pg/ml and 255 pg/ml | 47.8 pg/mL and 4 pg/mL and 0 pg/mL and 112.3 pg/mL and 44.8 pg/mL and 15 pg/mL |  | A (p ≦ 0.05 and 50 ≦ net) | Ar (p* ≦ 0.1 and 500 ≦ net**) | ArArArB |  |
| VYDYNCHVDL [SART 3109-118] | ++ and + and − | ++ and − | ++ and + | + and − (2×) | + (8×) and ++ and − | + (11×) and − | 25 pg/ml and 27.3 pg/ml and 534** pg/ml and 170.8 pg/ml and 750** pg/ml and 610.8* pg/ml and 250 pg/ml and 496 pg/ml and 22.3 pg/ml and 0 pg/ml and 681.8 pg/ml | 14.3 pg/ml and 26 pg/ml and 12.3 pg/ml and 5.3 pg/ml and 5.5 pg/ml and 0 pg/ml (2×) and 625 pg/ml and 35.8 pg/ml and 30.3 pg/ml and 25.3 pg/ml and 2.8 pg/ml | ArAA and ArArArA | ArA and ArArArA | B (p ≦ 0.05 and 25 ≦ net < 50); also recorded: ArArArA | ArArAA |  |
| C[C@]12CC[C@@H]3c4ccc(OC(=O)N(CCCl)CCCl)cc4CC[C@H]3[C@@H]1CC[C@@H]2OP(=O)(O)O [estramustine phosphate, Estramustine phosphate] |  |  |  |  |  |  |  |  |  |  |  |  | Immune suppression ([5]; full dose (560 mg/day) with peptide vaccination, cases 2 and 3, recovered on discontinuing): severe immune suppression; Immune suppression ([5]; half/low dose (280 mg/day) with the peptide, 8 cases tested): no significant immune suppression; Clinical Response, number of PD [6, 9]: 3; Clinical Response, number of SD [6, 9]: 1; Response, Cellular Immunity [6, 9]: 3/4; Response, Humoral Immunity [6, 9]: 4/4; Clinical Response, number of PD [6, 10]: 12PD; Clinical Response, number of PR [6, 10]: 10PR,; Clinical Response, number of SD [6, 10]: 10SD,; Response, Cellular Immunity [6, 10]: 23/31; Response, Humoral Immunity [6, 10]: 27/32; Clinical Response, number of PD [6, 11]: 5PD; Response, Cellular Immunity [6, 11]: 0/3; Response, Humoral Immunity [6, 11]: 1/2; Immunosuppression [7]: no significant immunosuppression in most cases |
| CC[C@]1(O)C[C@@H]2CN(CCc3c([nH]c4ccccc34)[C@@](C(=O)OC)(c3cc4c(cc3OC)N(C)[C@H]3[C@@](O)(C(=O)OC)[C@H](OC(C)=O)[C@]5(CC)C=CCN6CC[C@]43[C@@H]65)C2)C1 [vinblastine] |  |  |  |  |  |  |  |  |  |  |  |  | Rate of neutropenia, grade 2 [8]: 27%; Rate of neutropenia, grade 3 [8]: 18%; Rate of neutropenia, grade 4 [8]: 9% |
| AYDFLYNYL [SART 2161-169] | − | − | − | − |  | + |  | 0 pg/mL | A (p ≦ 0.05 and 50 ≦ net) | Ar (p* ≦ 0.1 and 500 ≦ net**) | B (p ≦ 0.05 and 25 ≦ net < 50) and AAC | ArA and ArArAA |  |
| DYLRSVLEDF [lck488-497] | − (3×) and + | − (2×) and + | + (2×) and − | − | − | + (3×) and − | 99 pg/mL and 26.8 pg/mL and 26.5 pg/mL and 19.8 pg/mL | 29.8 pg/mL and 36.5 pg/mL and 31.8 pg/mL and 30.5 pg/mL | C (0.05 < p < 0.1 and 50 ≦ net) and B (p ≦ 0.05 and 25 ≦ net < 50) and ArAB | ABB |  |  |  |
| HYRKWIKDTI [PSA248] |  |  |  |  | + (8×) and ++ (4×) | + (12×) and − (2×) | 100 pg/ml and 505.8 pg/ml and 303.5 pg/ml and 149.8 pg/ml and 0 pg/ml (4×) and 9.3 pg/ml and 21.3 pg/ml and 38.8 pg/ml and 243.5 pg/ml and 9.8 pg/ml | 19.5 pg/ml and 28.3 pg/ml and 12.8 pg/ml and 14.3 pg/ml and 6.5 pg/ml and 18.5 pg/ml and 0 pg/ml (2×) and 375 pg/ml and 17 pg/ml and 250 pg/ml and 18 pg/ml and 32.8 pg/ml and 23.8 pg/ml |  |  |  |  |  |
